Reference: patent US4044043A, “Derivatives of 9-oxo-13-trans-prostenoic acid esters” (American Cyanamid Company, priority 1975, dated 1977)
Converted amounts (≈) assume the structure as drawn.

What follows are compounds tested on dl-PGE1-induced contraction of gerbil colon (assay: Inhibition of dl-PGE1-Induced Contraction of Gerbil Colon (prostaglandin antagonist action)). Conditions: Meriones unguiculatus, 1 min; sub-maximal challenge, 20 ng./ml. dl-PGE1; 50% inhibition of maximum response; read-out: ID50 vs. 20 ng. of PGE1/ml.
Format: cell-based, gerbils (Meriones unguiculatus)
Procedure, shortened: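 Ascending colon from male gerbils, held in De Jalon's solution at 37 °C under 95% O2/5% CO2 with 0.5 g resting tension, contraction recorded isometrically. 1 min compound exposure, then 1 min dl-PGE1 at 200 ng/ml (maximal) or 20 ng/ml (sub-maximal). Approximate ID50 taken from a concentration series against the preceding agonist-only cycle.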

IC50	SMILES
5 to 10 µg/mL (≈ 16.1 to 32.2 µM)	CC(C)CCC=CC1CCC(O)C1CCCCCCC(=O)O (stereo not drawn) [9-hydroxy-17-methyl-18,19-dinor-13-trans-prostenoic acid]
10 to 20 µg/mL (≈ 34 to 67.9 µM)	CCCCCC/C=C/[C@H]1CCC(=O)[C@@H]1CCCCC(=O)O (relative stereo) [9-oxo-6,7-dinor-13-trans-prostenoic acid]
10 to 12 µg/mL (≈ 33.7 to 40.5 µM)	CCCCCCC=CC1CCC(O)C1CCCCC(=O)O (stereo not drawn) [9-hydroxy-6,7-dinor-13-trans-prostenoic acid]

Each compound was assayed on bronchospasms elicited by acetylcholine (assay: Bronchodilator Activity (Konzett Assay) against acetylcholine). Conditions: Cavia porcellus; three logarithmic cumulative intravenous doses.
Format: in vivo, guinea pigs
Procedure, shortened: (§1)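 Guinea pigs given intravenous spasmogen (5-hydroxytryptamine, histamine or acetylcholine) per Konzett procedure. ED50 derived from three logarithmic cumulative intravenous doses of test compound.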

SMILES	ED50
CCCCCCC=CC1CCC(O)C1CCCCC(=O)O (stereo not drawn) [9-hydroxy-6,7-dinor-13-trans-prostenoic acid]	> 10 mg/kg

These compounds were tested on bronchospasms elicited by 5-hydroxytryptamine (assay: Bronchodilator Activity (Konzett Assay) against 5-hydroxytryptamine). Conditions: Cavia porcellus; three logarithmic cumulative intravenous doses.
Format: in vivo, guinea pigs
Procedure, shortened: as §1

SMILES	ED50
CCCCCCC=CC1CCC(O)C1CCCCC(=O)O (stereo not drawn) [9-hydroxy-6,7-dinor-13-trans-prostenoic acid]	> 10 mg/kg

These compounds were tested on bronchospasms elicited by histamine (assay: Bronchodilator Activity (Konzett Assay) against histamine). Conditions: Cavia porcellus; three logarithmic cumulative intravenous doses.
Format: in vivo, guinea pigs
Procedure, shortened: as §1

SMILES	ED50
CCCCCCC=CC1CCC(O)C1CCCCC(=O)O (stereo not drawn) [9-hydroxy-6,7-dinor-13-trans-prostenoic acid]	6.06 mg/kg

What follows are compounds tested on diastolic blood pressure (assay: Prostaglandin-like hypotensive activity in anesthetized rats (minimal dose for about 10 mm. decrease in diastolic blood pressure)). Conditions: Rattus norvegicus; intravenous; decrease of about 10 mm. in diastolic blood pressure.
Format: in vivo, Male Wistar strain rats
Procedure, shortened: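 Male Wistar rats (~250 g), pentobarbital 30 mg./kg. i.v. and hexamethonium 2 mg./kg. i.v., iliac artery cannulated for blood pressure. Compounds in saline-Tween 80 given i.v. at 0.1–10.0 mg./kg.; value is the minimal dose giving ~10 mm. drop in diastolic pressure.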

SMILES	minimal effective dose
CC(C)CCC=CC1CCC(O)C1CCCCCCC(=O)O (stereo not drawn) [9-hydroxy-17-methyl-18,19-dinor-13-trans-prostenoic acid]	0.2 to 2 mg/kg
CCCCCC/C=C/[C@H]1CCC(=O)[C@@H]1CCCCC(=O)O (relative stereo) [9-oxo-6,7-dinor-13-trans-prostenoic acid]	2 mg/kg
CCCCCCC=CC1CCC(O)C1CCCCC(=O)O (stereo not drawn) [9-hydroxy-6,7-dinor-13-trans-prostenoic acid]	2 mg/kg

What follows are compounds tested on Trichophyton tonsurans NIH 662 (assay: agar-dilution streak-plate antimicrobial assay). Conditions: NIH662, read-out: Minimal inhibitory conc. (3).
Format: cell-based
Procedure, shortened: (§2)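 Complete absence of visible growth on the streak defines the MIC, given in µg/ml. Each compound, made up at 2.5 mg/ml and diluted two-fold, is incorporated 1:10 into organism-appropriate nutrient agar before loop inoculation and incubation.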

MIC	SMILES
62 µg/mL (≈ 200 µM)	CC(C)CCC=CC1CCC(O)C1CCCCCCC(=O)O (stereo not drawn) [9-hydroxy-17-methyl-18,19-dinor-13-trans-prostenoic acid]
250 µg/mL (≈ 849 µM)	CCCCCC/C=C/[C@H]1CCC(=O)[C@@H]1CCCCC(=O)O (relative stereo) [9-oxo-6,7-dinor-13-trans-prostenoic acid]
62 µg/mL (≈ 209 µM)	CCCCCCC=CC1CCC(O)C1CCCCC(=O)O (stereo not drawn) [9-hydroxy-6,7-dinor-13-trans-prostenoic acid]

These compounds were tested on Trichophyton rubrum E 97 (assay: agar-dilution streak-plate antimicrobial assay). Conditions: E97, read-out: Minimal inhibitory conc. (5).
Format: cell-based
Procedure, shortened: as §2

MIC	SMILES
250 µg/mL (≈ 805 µM)	CC(C)CCC=CC1CCC(O)C1CCCCCCC(=O)O (stereo not drawn) [9-hydroxy-17-methyl-18,19-dinor-13-trans-prostenoic acid]
250 µg/mL (≈ 849 µM)	CCCCCC/C=C/[C@H]1CCC(=O)[C@@H]1CCCCC(=O)O (relative stereo) [9-oxo-6,7-dinor-13-trans-prostenoic acid]
250 µg/mL (≈ 843 µM)	CCCCCCC=CC1CCC(O)C1CCCCC(=O)O (stereo not drawn) [9-hydroxy-6,7-dinor-13-trans-prostenoic acid]

These compounds were tested on Microsporum canis ATCC 10214 (assay: agar-dilution streak-plate antimicrobial assay). Conditions: ATCC10214, read-out: Minimal inhibitory conc. (1).
Format: cell-based
Procedure, shortened: as §2

MIC	SMILES
250 µg/mL (≈ 849 µM)	CCCCCC/C=C/[C@H]1CCC(=O)[C@@H]1CCCCC(=O)O (relative stereo) [9-oxo-6,7-dinor-13-trans-prostenoic acid]
250 µg/mL (≈ 843 µM)	CCCCCCC=CC1CCC(O)C1CCCCC(=O)O (stereo not drawn) [9-hydroxy-6,7-dinor-13-trans-prostenoic acid]

The compounds below were run on Mycobacterium smegmatis ATCC 606 (assay: agar-dilution streak-plate antimicrobial assay). Conditions: Mycolicibacterium smegmatis, ATCC606, read-out: Minimal inhibitory conc. (6).
Format: cell-based
Procedure, shortened: as §2

MIC	SMILES
62 µg/mL (≈ 200 µM)	CC(C)CCC=CC1CCC(O)C1CCCCCCC(=O)O (stereo not drawn) [9-hydroxy-17-methyl-18,19-dinor-13-trans-prostenoic acid]
250 µg/mL (≈ 849 µM)	CCCCCC/C=C/[C@H]1CCC(=O)[C@@H]1CCCCC(=O)O (relative stereo) [9-oxo-6,7-dinor-13-trans-prostenoic acid]
62 µg/mL (≈ 209 µM)	CCCCCCC=CC1CCC(O)C1CCCCC(=O)O (stereo not drawn) [9-hydroxy-6,7-dinor-13-trans-prostenoic acid]

These compounds were tested on Trichophyton mentagrophytes E 11 (assay: agar-dilution streak-plate antimicrobial assay). Conditions: E11, read-out: Minimal inhibitory conc. (4).
Format: cell-based
Procedure, shortened: as §2

MIC	SMILES
62 µg/mL (≈ 200 µM)	CC(C)CCC=CC1CCC(O)C1CCCCCCC(=O)O (stereo not drawn) [9-hydroxy-17-methyl-18,19-dinor-13-trans-prostenoic acid]
250 µg/mL (≈ 849 µM)	CCCCCC/C=C/[C@H]1CCC(=O)[C@@H]1CCCCC(=O)O (relative stereo) [9-oxo-6,7-dinor-13-trans-prostenoic acid]
62 µg/mL (≈ 209 µM)	CCCCCCC=CC1CCC(O)C1CCCCC(=O)O (stereo not drawn) [9-hydroxy-6,7-dinor-13-trans-prostenoic acid]

Each compound was assayed on Microsporum gypseum ATCC 14683 (assay: agar-dilution streak-plate antimicrobial assay). Conditions: Nannizzia gypsea, ATCC14683, read-out: Minimal inhibitory conc. (2).
Format: cell-based
Procedure, shortened: as §2

MIC	SMILES
62 µg/mL (≈ 200 µM)	CC(C)CCC=CC1CCC(O)C1CCCCCCC(=O)O (stereo not drawn) [9-hydroxy-17-methyl-18,19-dinor-13-trans-prostenoic acid]
250 µg/mL (≈ 849 µM)	CCCCCC/C=C/[C@H]1CCC(=O)[C@@H]1CCCCC(=O)O (relative stereo) [9-oxo-6,7-dinor-13-trans-prostenoic acid]
62 µg/mL (≈ 209 µM)	CCCCCCC=CC1CCC(O)C1CCCCC(=O)O (stereo not drawn) [9-hydroxy-6,7-dinor-13-trans-prostenoic acid]

What follows are compounds tested on Streptococcus pyogenes C 203 (assay: agar-dilution streak-plate antimicrobial assay). Conditions: C203, read-out: Minimal inhibitory conc. (8).
Format: cell-based
Procedure, shortened: as §2

MIC	SMILES
25 µg/mL (≈ 80.5 µM)	CC(C)CCC=CC1CCC(O)C1CCCCCCC(=O)O (stereo not drawn) [9-hydroxy-17-methyl-18,19-dinor-13-trans-prostenoic acid]
250 µg/mL (≈ 849 µM)	CCCCCC/C=C/[C@H]1CCC(=O)[C@@H]1CCCCC(=O)O (relative stereo) [9-oxo-6,7-dinor-13-trans-prostenoic acid]
62 µg/mL (≈ 209 µM)	CCCCCCC=CC1CCC(O)C1CCCCC(=O)O (stereo not drawn) [9-hydroxy-6,7-dinor-13-trans-prostenoic acid]

Each compound was assayed on Staphylococcus aureus Rose ATCC 14154 (assay: agar-dilution streak-plate antimicrobial assay). Conditions: ATCC14154, read-out: Minimal inhibitory conc. (7).
Format: cell-based
Procedure, shortened: as §2

MIC	SMILES
125 µg/mL (≈ 403 µM)	CC(C)CCC=CC1CCC(O)C1CCCCCCC(=O)O (stereo not drawn) [9-hydroxy-17-methyl-18,19-dinor-13-trans-prostenoic acid]
250 µg/mL (≈ 849 µM)	CCCCCC/C=C/[C@H]1CCC(=O)[C@@H]1CCCCC(=O)O (relative stereo) [9-oxo-6,7-dinor-13-trans-prostenoic acid]
250 µg/mL (≈ 843 µM)	CCCCCCC=CC1CCC(O)C1CCCCC(=O)O (stereo not drawn) [9-hydroxy-6,7-dinor-13-trans-prostenoic acid]
